# Test results from publication PMC10947113, “A Bivalent Activatable Fluorescent Probe for Screening and Intravital Imaging of Chemotherapy‐Induced Cancer Cell Death” (Angewandte Chemie (Weinheim an Der Bergstrasse, Germany), 2021).
# Like-named read-outs stand apart in the source and are kept apart here.
# B1: Annexin V‐AF647: a 36 kDa protein marker of PtdSer in the presence of Ca2+ ions (protein, UniProt P08758 2-320, looked up)
# Annexin A5: AQVLRGTVTDFPGFDERADAETLRKAMKGLGTDEESILTLLTSRSNAQRQEISAAFKTLFGRDLLDDLKSELTGKFEKLIVALMKPSRLYDAYELKHALKGAGTNEKVLTEIIASRTPEELRAIKQVYEEEYGSSLEDDVVGDTSGYYQRMLVVLLQANRDPDAGIDEAQVEQDAQALFQAGELKWGTDEEKFITIFGTRSVSHLRKVFDKYMTISGFQIEETIDRETSGNLEQLLLAVVKSIRSIPAYLAETLYYAMKGAGTDDHTLIRVMVSRSEIDLFNIRKEFRKNFATSLYSMIKGDTSGDYKKALLLLCGEDD
# modifications: Alexa Fluor 647 label
# notes: a 36 kDa protein marker of PtdSer in the presence of Ca2+ ions
# Experiments:
# 8 cancer cell lines = assay: Classification of drugs by Apotracker Red (apoptosis) and CellTrace Violet (proliferation) staining; format: cell-based; conditions: for effect on cell proliferation (CellTrace Violet): Figure S8
# Experimental: (§1) To corroborate the versatility of Apotracker Red, we built a screening platform including a total of 8 cancer cell lines of variable origin and pathogenesis: breast (MCF7, MDA‐MB231 and MMTV‐PyMT (mouse mammary tumour virus‐polyoma middle tumour‐antigen)[23]), lung (A549), prostate (PC3 and LnCap), blood cells (Jurkat) and colon (HT29). All cell lines were cultured under standard conditions and seeded with the fluorescent proliferation marker CellTrace^TM Violet (CV) in 96‐well plates (10–20×10^3 cells/well) for high‐throughput flow cytometry. After drug treatment (i.e., drug addition plus 24 h incubation), Apotracker Red was incubated for 10 min and fluorescence readings were directly acquired without any additional processing steps (Figure 3 a). […] Using this platform, we tested a collection of FDA‐approved drugs in all cancer cell lines and compared their ability to induce apoptosis using Apotracker Red as the reporter. Specifically, we included DNA alkylation agents (e.g., cyclophosphamide, cisplatin, 5‐fluorouracil, gemcitabine, temozolomide), proteasomal and mitotic inhibitors (e.g., bortezomib, docetaxel, paclitaxel) and antagonists of specific proteins (e.g., dexamethasone, tamoxifen; Figure 3 b).
# (§2) First, all drugs were tested in the 8 different cell lines to determine the percentages of Apotracker Red‐stained apoptotic cells compared to no treatment (Figure 3 c; Figure S8). […] All 5 drugs were tested at multiple concentrations (from 1 to 100 μM) and with incubation times up to 48 h to examine whether drugs could block cell proliferation at late stages (Figures S9–S13).
# Figure S8. Heatmap of relative inhibition of cell proliferation (as indicated by staining of CellTraceTM Violet) after treatment of cancer cell lines with different drugs. Data presented as an average of 3 independent experiments. Cells were stained on day 0 with CellTraceTM Violet (1 µM) and mean fluorescence intensities were determined on the 5L LSR after 24 h of treatment with the different drugs. […]
# Cell culture. MCF-7, A549, LnCap, MDA-MB-231, Jurkat T cells and PC3 cells were obtained from American Type Culture Collection (ATCC). HT29 cells were purchased from Merck (S i g m a Aldrich, UK). Mouse Mammary Tumour Virus –Polyoma Middle T antigen (MMTV -PyMT) cells were provided by the lab of Mikala Egeblad (CSHL, US). MMTV-PyMT, MCF-7, LnCap, MDA-MB-231 and Jurkat T cells were cultured in Roswell Park Memorial Institute (RPMI) 1640 Medium supplemented with 10% fetal bovine serum (FBS) , 100 U mL-1 penicillin and 0.1 mg mL-1 streptomycin. A549 and PC3 cells were cultured in Dublecco’s modified Eagle’s medium (DMEM) supplemented with 10% fetal bovine serum (FBS), 100 U mL-1 penicillin and 0.1 mg […]
# Flow cytometry drug screen.
# MDA-MB231 cells = assay: Apotracker Red flow cytometry drug screen, MDA-MB231; format: cell-based, human; conditions: 1 to 100 μM, 48 h, Apotracker Red 150 nM, 3 independent experiments
# Experimental: as §1, with “cytometry.” for “cytometry. After drug treatment (i.e., drug addition plus 24 h incubation), Apotracker Red was incubated for 10 min and fluorescence readings were directly acquired without any additional processing steps (Figure 3 a).”
# Edinburgh. Human peripheral blood neutrophils were isolated as previously described.[3] Briefly, whole blood was drawn into tubes containing anti -coagulant 3.6% sodium citrate (final concentration: 0.4% (w/v)) and centrifuged at 350 g for 20 min at r.t. with lowest acceleration and no brake. Platelet-rich plasma was rem oved, and leukocytes separated from erythrocytes by 0.6% dextran sedimentation in saline for 30 min at r.t. The upper layer was further fractionated using an isotonic discontinuous Percoll density gradient. Neutrophils were harvested from the 63% and 72.9% interface and cultured in Iscove’s Modified Dulbecco’s Medium (IMDM, Gibco) in 5% h um an A B se rum fo r 1 8 h at 37°C, 5% CO2 to in du ce spontaneous […]
# Cell culture. MCF-7, A549, LnCap, MDA-MB-231, Jurkat T cells and PC3 cells were obtained from American Type Culture Collection (ATCC). HT29 cells were purchased from Merck (S i g m a Aldrich, UK). Mouse Mammary Tumour Virus –Polyoma Middle T antigen (MMTV -PyMT) cells were provided by the lab of Mikala Egeblad (CSHL, US). […]
# [1] = system: breast cancer cells (MMTV-PyMT, MDA-MB231, MCF7); assay: Dose-dependency study in breast cancer cell lines; format: cell-based, mouse and human; conditions: 1 to 100 μM, 48 h, Apotracker Red 150 nM, 3 independent experiments
# Experimental: as §2, with “S8). […] From this screen, we decided to select 5 drugs with potent pro‐apoptotic response in breast cancer, the most diagnosed cancer worldwide.[25] […] From group 2, we selected cyclophosphamide, tamoxifen, and 5‐fluorouracil as pro‐apoptotic molecules.” for “S8).”
# Figure 4 Apotracker Red detects dose‐dependent chemotherapeutic‐induced apoptosis in mouse and human breast cancer cell lines. Cells were plated with 1 μM CV, treated with increasing concentrations (0, 1, 3, 10, 30 and 100 μM) of selected drugs for 48 h, and stained with Apotracker Red (150 nM) before data acquisition. Drugs: tamoxifen (beige), cisplatin (black), 5‐fluorouracil (green), gemcitabine (pink) and cyclophosphamide (red). Data presented as mean±SEM of 3 independent experiments.
# Edinburgh. Human peripheral blood neutrophils were isolated as previously described.[3] Briefly, whole blood was drawn into tubes containing anti -coagulant 3.6% sodium citrate (final concentration: 0.4% (w/v)) and centrifuged at 350 g for 20 min at r.t. with lowest acceleration and no brake. Platelet-rich plasma was rem oved, and leukocytes separated from erythrocytes by 0.6% dextran sedimentation in saline for 30 min at r.t. […]
# were centrifuged (300 g, 5 min, r.t.), washed once with PBS before addition of 0.05% Trypsin, 0.02% ethylenediaminetetraacetic acid (EDTA) in Hank’s balanced salt solution (HBSS) and incubation at 37°C for 5 min. […] Histograms and mean fluorescence intensities of apoptotic cells were measured on a 5L LSR flow cytometer under the following excitation/emission filters: Apotracker Red (561/610 nm), Annexin V-AF647 (647 /670 nm).
# Data were acquired using the FACS Diva software and analysed using the FlowJo X software. […]
# [2] = system: apoptotic cells (primary human neutrophils, Jurkat T cells); assay: Divalent cation-independent staining, flow cytometry with EDTA; format: cell-based; conditions: 2.5 mM EDTA, Apotracker Red 150 nM, Annexin V-AF647 25 nM
# [3] = 8 cancer cell lines, 24 h treatment, flow cytometry
Molecule,drug group by Apotracker Red (apoptosis) and CV (proliferation) staining (8 cancer cell lines; [3]),"Apotracker Red staining in MDA-MB-231 cells, dose-dependency study (MDA-MB231 cells)",other results
Cn1nnc2c(C(N)=O)ncn2c1=O [temozolomide],inhibited cell proliferation but showed little or no induction of apoptosis,,
CC(=O)O[C@@]12CO[C@@H]1C[C@H](O)[C@@]1(C)C(=O)[C@H](O)C3=C(C)[C@@H](OC(=O)[C@H](O)[C@@H](NC(=O)OC(C)(C)C)c4ccccc4)C[C@@](O)([C@@H](OC(=O)c4ccccc4)[C@H]21)C3(C)C [docetaxel],inhibited cell proliferation but showed little or no induction of apoptosis,,
CC(=O)O[C@H]1C(=O)[C@@]2(C)[C@H]([C@H](OC(=O)c3ccccc3)[C@]3(O)C[C@H](OC(=O)[C@H](O)[C@@H](NC(=O)c4ccccc4)c4ccccc4)C(C)=C1C3(C)C)[C@]1(OC(C)=O)CO[C@@H]1C[C@@H]2O [paclitaxel],induced apoptosis with little reduction of cell proliferation,,effect on cell proliferation (CellTrace Violet) (8 cancer cell lines; 24 h treatment): very minor effects on cell proliferation
O=c1[nH]cc(F)c(=O)[nH]1 [5-fluorouracil],induced apoptosis with little reduction of cell proliferation,weaker Apotracker Red‐staining,
Nc1ccn([C@@H]2O[C@H](CO)[C@@H](O)C2(F)F)c(=O)n1 [gemcitabine],induced apoptosis and decreased cell proliferation,weaker Apotracker Red‐staining,
CC(C)C[C@H](NC(=O)[C@H](Cc1ccccc1)NC(=O)c1cnccn1)B(O)O [bortezomib],induced apoptosis with little reduction of cell proliferation,,effect on cell proliferation (CellTrace Violet) (8 cancer cell lines; 24 h treatment): very minor effects on cell proliferation
CC/C(=C(\c1ccccc1)c1ccc(OCCN(C)C)cc1)c1ccccc1 [tamoxifen],induced apoptosis with little reduction of cell proliferation,,"percentages of Apotracker Red staining across all breast cancer cells, dose-dependency study [1]: highest percentages of Apotracker Red staining"
C[C@@H]1C[C@H]2[C@@H]3CCC4=CC(=O)C=C[C@]4(C)[C@@]3(F)[C@@H](O)C[C@]2(C)[C@@]1(O)C(=O)CO [dexamethasone],had no impact on proliferation or apoptosis,,
O=P1(N(CCCl)CCCl)NCCCO1 (stereo not shown) [cyclophosphamide],,weaker Apotracker Red‐staining,drug group by Apotracker Red (apoptosis) and CV (proliferation) staining (8 cancer cell lines): induced apoptosis with little reduction of cell proliferation
B1,,,staining of apoptotic cells after chelation of divalent cations [2]: failed to bind
